The test system of one data set is NIH Swiss mice. Description: Protection from lethal total body gamma radiation, lipopeptides s.c. 30 minutes prior. As to conditions: for survival post-treatment: <0.1 MTD. Format: in vivo. As for the experimental part: Lipopeptides are potent activators of NF-κB and, as such, may act as inhibitors of apoptotic death. To determine whether lipopeptides function as radioprotectants, various lipopeptides were initially tested to determine the maximal tolerable dose (MTD). Various lipopeptides were then tested to measure their protective effect in NIH Swiss mice to lethal hematopoietic or nd gastrointestinal syndromes after exposure to 10 Gy or 13-15 Gy of total body gamma radiation, respectively. Lipopeptides (0.3-10 μg/mouse) were administered subcutaneously 30 minutes prior to irradiation.
The results of a representative experiment using R-PAM2C-SKKKK (SEQ ID NO: 8) (hereafter, this compound is called, CBLB601) at <0.1 MTD are shown in FIG. 3. As expected, control mice irradiated with 10 Gy died between 11 and 15 days post-treatment, while all animals that received CBLB601 lived beyond 35 days post-treatment. Similarly, control mice irradiated with 13 Gy died between 6 and 10 days post-treatment, while all but one animal that received CBLB601 lived beyond 35 days post-treatment. The radioprotective ability of CBLB601 was further analyzed by measuring the effect of radiation on spleen size.

For a further data set, the system named is ICR mice. Description: NOAEL determination, i.p. injection of increasing doses, two-week observation. The data set is classed as in vivo. Here is the method:
The dose of NOAEL (No Obvious Adverse Effects Level) was determined by injecting intraperitoneally (i.p) ICR mice with the increasing doses of CBLB601 (0.3, 1, 3, 10, 30, 60, 100 μg/mouse). Control mice were injected with PBS. […] During the first week they were weighed daily. […] Thus, NOAEL for CBLB601 was determined to be 30 μg/mouse.

The target of another data set is T1, TLR2/TLR6 heterodimer (Homo sapiens, UniProt O60603+Q9Y2C9).
T1 construct: expressed in transfected cells; host or cells: 293 cells
T1 sequence (O60603 21-784): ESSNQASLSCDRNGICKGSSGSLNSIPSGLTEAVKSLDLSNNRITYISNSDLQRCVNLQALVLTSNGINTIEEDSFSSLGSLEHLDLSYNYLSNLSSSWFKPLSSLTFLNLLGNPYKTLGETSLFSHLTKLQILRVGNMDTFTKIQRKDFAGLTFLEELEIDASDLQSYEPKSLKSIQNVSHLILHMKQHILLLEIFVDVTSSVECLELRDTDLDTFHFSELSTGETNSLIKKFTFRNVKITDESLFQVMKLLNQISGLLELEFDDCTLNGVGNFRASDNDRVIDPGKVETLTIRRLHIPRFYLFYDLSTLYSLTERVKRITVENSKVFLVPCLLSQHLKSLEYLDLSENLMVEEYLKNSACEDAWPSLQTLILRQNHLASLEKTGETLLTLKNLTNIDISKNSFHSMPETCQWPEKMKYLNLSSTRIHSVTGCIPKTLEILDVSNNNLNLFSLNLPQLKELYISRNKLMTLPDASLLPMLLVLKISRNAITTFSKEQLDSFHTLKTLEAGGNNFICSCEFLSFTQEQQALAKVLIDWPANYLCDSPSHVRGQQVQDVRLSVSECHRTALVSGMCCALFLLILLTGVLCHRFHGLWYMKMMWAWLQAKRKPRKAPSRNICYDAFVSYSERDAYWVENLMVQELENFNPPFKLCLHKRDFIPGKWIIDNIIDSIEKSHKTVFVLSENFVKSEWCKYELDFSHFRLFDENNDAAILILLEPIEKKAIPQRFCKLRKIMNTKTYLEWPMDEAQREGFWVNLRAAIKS
T1 sequence (Q9Y2C9 32-796): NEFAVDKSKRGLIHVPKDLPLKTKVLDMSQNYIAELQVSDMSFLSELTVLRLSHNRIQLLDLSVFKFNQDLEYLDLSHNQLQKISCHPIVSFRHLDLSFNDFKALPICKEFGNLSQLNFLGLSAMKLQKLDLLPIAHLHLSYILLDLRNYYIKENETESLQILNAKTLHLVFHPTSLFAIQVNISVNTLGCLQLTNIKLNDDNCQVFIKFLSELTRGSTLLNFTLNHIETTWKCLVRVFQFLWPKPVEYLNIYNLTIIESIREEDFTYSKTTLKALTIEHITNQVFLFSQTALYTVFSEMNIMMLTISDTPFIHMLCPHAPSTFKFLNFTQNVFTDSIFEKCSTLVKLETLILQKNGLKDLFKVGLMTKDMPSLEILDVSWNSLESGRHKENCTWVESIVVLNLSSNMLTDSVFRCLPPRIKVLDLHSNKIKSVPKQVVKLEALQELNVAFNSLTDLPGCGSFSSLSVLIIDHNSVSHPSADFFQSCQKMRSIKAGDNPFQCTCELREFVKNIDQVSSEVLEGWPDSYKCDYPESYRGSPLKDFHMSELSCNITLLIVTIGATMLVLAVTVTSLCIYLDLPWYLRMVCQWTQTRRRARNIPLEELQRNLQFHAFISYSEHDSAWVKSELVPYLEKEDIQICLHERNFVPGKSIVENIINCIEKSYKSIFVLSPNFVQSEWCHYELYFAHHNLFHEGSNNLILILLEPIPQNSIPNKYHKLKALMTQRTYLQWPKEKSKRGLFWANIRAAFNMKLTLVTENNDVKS
The experiment in a line: NF-κB-dependent reporter activity in 293 cells expressing the TLR2/TLR6 heterodimer. Format: cell-based. Further details: NF-κB activation: scale not given here. As to conditions: in vitro activity, 293 cells expressing TLR2/TLR6. Here is the method:
NF-κB-dependent reporter activity was measured in 293 cells that expressed the TLR2/YLR6 heterodimer. […] None of the non-palmitoylated corresponding peptides activated the NF-κB reporter (FIG. 18B). The peptide component of CBLB617 has a (−4) charge, which should prevent it from interacting with negatively charged cell surface markers. […] Table 5 summarizes the in vitro activity and solubility of all the compounds.

A short description of data set [1]: Solubility of the lipopeptides.

Peptide text beside a SMILES is read from it. * marks the point of attachment. Propyl(2R-PamO,3-PamO) = CCCCCCCCCCCCCCCC(=O)OC[C@H](C*)OC(=O)CCCCCCCCCCCCCCC

In the case of `CCCCCCCCCCCCCCCC(=O)OC[C@H](CSC[C@H](N)C(=O)N[C@@H](CO)C(=O)N[C@@H](CCCCN)C(=O)N[C@@H](CCCCN)C(=O)N[C@@H](CCCCN)C(=O)N[C@@H](CCCCN)C(=O)O)OC(=O)CCCCCCCCCCCCCCC` [CBLB601, R-PAM2C-SKKKK] (H-C(Propyl(2R-PamO,3-PamO))SKKKK-OH), the survival post-treatment in the data set on NIH Swiss mice (10 Gy, all animals) was more than 35 days; in the data set on NIH Swiss mice (13 Gy, all but one animal), more than 35 days. In the data set on NIH Swiss mice (13 Gy total body gamma irradiation (FIG. 4)), the “effect of radiation on spleen size” value is reported as “significantly less reduction in the size of the spleen”. Further, in the data set on NIH Swiss mice (data not shown), the “protection of the thymus from radiation” value is recorded as “protected the thymus from radiation”. Also, in the data set with ICR mice (30 μg dose i.p.), the “differences between treated and control mice” value is listed as “no noticeable differences”. Moreover, in the data set with ICR mice (60 μg dose i.p., around 3-4 days after treatment), the morbidity result was “signs of morbidity, such as slow motion and scruffy fur”. Further, the mortality result with ICR mice (100 μg/mouse i.p., 1-2 days post-treatment) is “Mortality was observed”. For the same compound, the “body weight versus control mice” value with ICR mice (0.3-100 μg/mouse i.p., weighed daily in first week) is “no differences in weight”. Moreover, the “NOAEL (No Obvious Adverse Effects Level)” value in the data set on ICR mice (i.p., ICR mice) was determined as 30 μg/mouse. On TLR2/TLR6 heterodimer, this compound returned an NF-κB activation of 100. Moreover, in data set [1], the Solubility entry is “Excellent”.

The values above are taken from patent US8008260B2, “Methods of protecting against apoptosis using lipopeptides” (Cleveland Clinic Foundation, priority 2005, dated 2011).
